Patent US20040204383A1, “Lysophosphatidic acid analogs and inhibition of neointima formation” (priority 2003, published 2004)
Entries after “also recorded” stand apart in the source; their conditions may differ.

Tests used:
rat carotid arteries = test: Induction of neointima formation in rat carotid artery by topical application; assay type: in vivo
Source text: Briefly, the right carotid artery of anesthetized adult male Sprague-Dawley rats (250-300 g) was surgically exposed. The caudal origin of the common carotid artery was ligated using a vessel clip, followed by exposure and ligation of the internal carotid artery above the bifurcation. The external carotid artery was exposed, and a polyethylene catheter was inserted such that it never reached the common carotid artery, thereby avoiding mechanical injury to the vessel. The clip occluding the common carotid artery was temporarily released, and the vessel was rinsed with a retrograde injection of 500 μl physiological saline to remove residual blood. The vessel was again clipped, and 100 μl of treatment solution was injected. After 60 min of incubation, the cannula was withdrawn, the external carotid artery was ligated, and blood flow was restored. Animals were allowed to recover and were killed 7-56 d later by intracardiac perfusion of 10% buffered formaldehyde (pH 7.4). The common carotid artery from the […] to the bifurcation was dissected, embedded in paraffin, and processed for histological analysis. Five μm-thick sections were cut and stained with hematoxylin and eosin or Masson's trichrome stain. Intima to media ratios were quantified using an image analysis system (Scion Image CMS-800).

PPARγ = target: T1, PPARγ (Homo sapiens, UniProt P37231); test: PPRE-Acox-Rluc reporter gene assay in CV-1 cells transfected with PPARγ; assay type: cell-based; settings: for activation of the PPRE-Acox-Rluc reporter: 10 μM, 20 h, CV-1 cells (FIG. 6C)
T1 construct: expressed in transfected cells; host or cells: CV-1 cells, transient transfection with LipofectAMINE 2000
T1 sequence (P37231 1-505): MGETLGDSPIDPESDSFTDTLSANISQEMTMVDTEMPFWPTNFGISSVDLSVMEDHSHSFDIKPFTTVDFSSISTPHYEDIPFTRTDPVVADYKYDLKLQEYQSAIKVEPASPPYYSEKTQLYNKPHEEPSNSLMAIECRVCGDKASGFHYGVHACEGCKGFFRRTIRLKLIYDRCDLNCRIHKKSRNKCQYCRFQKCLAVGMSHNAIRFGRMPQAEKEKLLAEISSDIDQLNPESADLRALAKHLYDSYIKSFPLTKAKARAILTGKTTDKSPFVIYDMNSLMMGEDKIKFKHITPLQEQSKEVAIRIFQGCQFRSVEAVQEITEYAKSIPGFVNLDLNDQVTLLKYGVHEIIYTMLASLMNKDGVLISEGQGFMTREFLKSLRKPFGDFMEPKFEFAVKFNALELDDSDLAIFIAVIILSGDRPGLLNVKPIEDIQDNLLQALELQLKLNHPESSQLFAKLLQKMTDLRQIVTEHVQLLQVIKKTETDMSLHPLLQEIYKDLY
T1 sequence (P19793 1-462 partner): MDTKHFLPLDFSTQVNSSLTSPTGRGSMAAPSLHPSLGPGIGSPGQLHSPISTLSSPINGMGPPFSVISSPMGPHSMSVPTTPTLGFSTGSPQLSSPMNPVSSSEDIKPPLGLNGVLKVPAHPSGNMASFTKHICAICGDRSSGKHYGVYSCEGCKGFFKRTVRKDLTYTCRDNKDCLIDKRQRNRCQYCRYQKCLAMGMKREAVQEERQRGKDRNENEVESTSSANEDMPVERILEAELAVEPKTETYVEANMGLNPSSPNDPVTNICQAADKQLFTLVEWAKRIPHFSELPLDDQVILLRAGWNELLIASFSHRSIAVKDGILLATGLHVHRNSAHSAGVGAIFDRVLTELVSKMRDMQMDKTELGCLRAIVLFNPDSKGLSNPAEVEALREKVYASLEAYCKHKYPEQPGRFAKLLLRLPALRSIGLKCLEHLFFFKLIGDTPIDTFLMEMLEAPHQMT
Method: CV-1 cells were plated in 96-well plates (5×10^3 cells per well) in DME supplemented with 10% FBS. […] Twenty four hours after transfection, cells were treated with 1% FBS-supplemented OptiMEMI™ (Invitrogen) containing DMSO or test compound (10 μM) in DMSO for 20 h. Luciferase and β-galactosidase activities were measured with the Steady-Glo® Luciferase Assay System (Promega) and the Galacto-Light Plus™ System (Applied Biosystems), respectively. Samples were run in quadruplicate, and the mean±SE were calculated. Data are representative of at least three independent transfections. Student's t test was used for null hypothesis testing, and P<0.05 was considered significant.

[1] = test system: CD36(−273)-Rluc reporter gene; test: CD36(−273)-Rluc reporter gene (with PPRE) in CV-1 cells; assay type: cell-based; settings: 10 μM, CV-1 cells (FIG. 7E)
Method: Therefore, the investigators compared the unique in vivo neointima-eliciting lysophosphatidic acid structure-activity relationship with that of PPARγ using an in vitro assay that utilizes an acyl-coenzyme A oxidase-luciferase (PPRE-Acox-Rluc) reporter gene construct containing a peroxisome proliferator-activated receptor response element. CV-1 cells were plated in 96-well plates (5×10^3 cells per well) in DME supplemented with 10% FBS. The next day, the cells were transiently transfected with 125 ng of pGL3-PPRE-acyl-CoA oxidase (Acox)-renilla luciferase), or 125 ng pGL3-CD36(−273), or pGL3-CD36(−261), 62.5 ng of pcDNAI-PPARγ, and 12.5 ng of pSV-β-galactosidase (Promega) using LipofectAMINE™ 2000 (Invitrogen). Twenty four hours after transfection, cells were treated with 1% FBS-supplemented OptiMEMI™ (Invitrogen) containing DMSO or test compound (10 μM) in DMSO for 20 h. Luciferase and β-galactosidase activities were measured with the Steady-Glo® Luciferase Assay System (Promega) and the Galacto-Light Plus™ System (Applied Biosystems), respectively. Samples were run in quadruplicate, and the mean±SE were calculated. Data are representative of at least three independent transfections. Student's t test was used for null hypothesis testing, and P<0.05 was considered significant.

[2] = test system: vascular smooth muscle cells; test: Phenotypic modulation and dedifferentiation of cultured VSMCs (morphology, hCAD mRNA); assay type: cell-based, rat
Method: Expression of lysophosphatidic acid-specific G protein-coupled plasma membrane receptors in rat carotid arteries was examined by RT-PCR as described earlier by Wang et al. (2002). To quantify heavy caldesmon mRNA, quantitative PCR was performed applying the real-time SYBR Green PCR method using a Sequence Detection System Model 7700 (Applied Biosystems) instrument. Rat heavy caldesmon and GAPDH (reference control mRNA)-specific primers were designed with Primer Express Software (Applied Biosystems), and forward and reverse primers were as follows: 5′-[…]-3′ (SEQ ID NO:1) and 5′-[…]-3′ (SEQ ID NO:2) for heavy caldesmon; 5′-[…]-3′ (SEQ ID NO:3) and 5′-[…]-3′ (SEQ ID NO:4) for GAPDH. Amplification reaction was performed with SYBR Green PCR Master Mix (Applied Biosystems) following the manufacturer's protocol. mRNA abundance calculation was based on Ct values as described previously (Wang et al., 2002). The expression level of heavy caldesmon mRNA was normalized to GAPDH mRNA. Each PCR reaction was performed at least three times, and the result was expressed as mean±SEM. Statistical comparison of mRNA expression was evaluated by ANOVA, and P<0.05 was considered statistically significant.
It has been reported that unsaturated lysophosphatidic acid species induced phenotypic modulation of cultured vascular smooth muscle cells (VSMCs). Because the neointimal response and PPARγ display a similar selectivity for unsaturated lysophosphatidic acid, that activation of PPARγ plays a role in the phenotypic dedifferentiation is hypothesized herein. This hypothesis was tested in a culture system in which IGF-1 maintains the differentiated spindle shape of vascular smooth muscle cells as indicated by high levels of heavy caldesmon (hCAD) mRNA expression.

[3] = 10 μM, rat carotid artery model (FIG. 3C)
[4] = 10 ng/ml, 2-wk period (FIG. 5B)

2,3-cyclic phosphatidic acid [cPA 18:1]
neointima formation (rat carotid arteries; [3]): did not elicit detectable neointima
neointima formation (rat carotid arteries; 10 μM, rat carotid artery model (FIG. 3C), listed as cPA): inactive
activation of the PPRE-Acox-Rluc reporter (PPARγ): inactive

3-O-octadecenyl-glycerophosphate [3AGP]
neointima formation (rat carotid arteries; [3]): modestly effective

CCCCCCCCC=CCCCCCCCCOCC(O)COP(=O)(O)O (centres unmarked) [1AGP, 1-octadecenyl-glycerophosphate]
neointima formation (rat carotid arteries; [3]): highly effective
stimulation of CD36(−273)-Rluc reporter gene [1]: higher stimulation

CCCCCCCCCCCCCCCCOCC(COP(=O)([O-])OCC[N+](C)(C)C)OC(=O)CCCCCCCC(=O)O (centres unmarked) [AZ-PC, 1-O-hexadecyl-2-azaleoyl-phosphatidylcholine]
neointima formation (rat carotid arteries; after 2 weeks (FIG. 6B)): caused neointima formation

O=C(Nc1ccccc1)c1cc([N+](=O)[O-])ccc1Cl [GW9662]
inhibition of neointima formation elicited by lysophosphatidic acid 20:4 (rat carotid arteries; 5 μM 30 min before and coapplied with 2.5 μM LPA 20:4): completely abolished neointima formation; also recorded: inhibited
effect on vessels from animals treated with SOV-PC and saturated lysophosphatidic acid species (rat carotid arteries; FIG. 6B): had no effect
inhibition of AZ-PC-induced neointima formation (rat carotid arteries; FIG. 6B): inhibited by GW9662
inhibition of neointima formation in response to LPA 18:2 (rat carotid arteries; GW9662 pretreatment (FIG. 6B)): inhibited
inhibition of neointima formation in response to minimally oxidized LDL (rat carotid arteries; GW9662 pretreatment (FIG. 6B)): inhibited
inhibition of Rosi-induced lesion formation (rat carotid arteries; GW9662 pretreatment and coapplication (FIG. 6B)): fully blocked
inhibition of lysophosphatidic acid 20:4-induced PPRE-Acox-Rluc reporter gene expression (PPARγ; 10 μM (FIG. 6D)): abolished
effect on LPA 20:4- and Rosi-induced flattened morphology of VSMCs ([2]; 200 nM GW9662): reversed this effect
effect on hCAD mRNA expression ([2]; 200 nM pretreatment, quantitative RT-PCR (FIG. 8I)): caused a significant increase in hCAD mRNA expression
effect on morphology of IGF-1- and LPA 20:0-treated VSMC cultures ([2]; 200 nM, 30 min pretreatment): did not affect the spindle-like morphology

CCCCCCCCCCCCCCCCCC(=O)OCC(O)COP(=O)(O)O (centres unmarked) [LPA 18:0]
neointima formation (rat carotid arteries; [3]): did not elicit detectable neointima

CCCCCCCCCCCCC/C=C/[C@@H](O)[C@@H](N)COP(=O)(O)O [S1P, sphingosine 1-phosphate]
activation of the PPRE-Acox-Rluc reporter (PPARγ): inactive

CCCCCCCCCCCCCCCCCC(=O)OC[C@H](COP(=O)([O-])OCC[N+](C)(C)C)OC(=O)CCCC=O [SOV-PC, stearoyl-oxovaleryl phosphatidylcholine]
neointima formation (rat carotid arteries; after 2 weeks (FIG. 6B)): failed to stimulate neointima formation

CCCCCCCCCCCCCCCC(=O)O[C@H](COP(=O)(O)O)C(F)F [XY4, 1,1-difluorodeoxy-(2R)-palmitoyl-sn-glycero-3-phosphate]
neointima formation (rat carotid arteries; 10 μM, 2-wk period (FIG. 5B)): showed neointima formation

CCCCCCCCCCCCCCCC(=O)OC[C@@H](F)COP(=O)(O)O [XY8, 1-palmitoyl-(2R)-fluorodeoxy-sn-glycero-3-phosphate]
neointima formation (rat carotid arteries; 10 μM, 2-wk period (FIG. 5B)): showed neointima formation

CCCCCCCCCCCCCCCCOC[C@@H](O)COP(=O)(O)O [hexadecyl-GP]
activation of the PPRE-Acox-Rluc reporter (PPARγ): activated the reporter gene

CCCCCCCCCCCCCCCCCCOC[C@@H](O)COP(=O)(O)O [octadecyl-GP]
activation of the PPRE-Acox-Rluc reporter (PPARγ): activated the reporter gene

EGF: epidermal growth factor (NSDSECPLSHDGYCLHDGVCMYIEALDKYACNCVVGYIGERCQYRDLKWWELR; UniProt P01133 971-1023, looked up)
neointima formation (rat carotid arteries; 50 ng/ml, 2-wk period (FIG. 5B)): failed to induce detectable neointima
neointima formation (rat carotid arteries; 100 ng/ml (summary)): ineffective in inducing neointima formation

LPA 18:1
neointima formation (rat carotid arteries; 10 μM, 2-wk period (FIG. 5B)): showed neointima formation
extent of neointima development, concentration dependence (rat carotid arteries; 2 wk after treatment (FIG. 4B)): concentration dependent up to 10 μM
concentration at which neointima development reached statistical significance (rat carotid arteries; P<0.01, FIG. 4B): 5 µM

PDGF
neointima formation (rat carotid arteries; [4]): ineffective in inducing neointima formation; also recorded: failed to induce detectable neointima

VEGF
neointima formation (rat carotid arteries; [4]): ineffective in inducing neointima formation; also recorded: failed to induce detectable neointima

dioctylglycerol pyrophosphate [DGPP]
inhibition of lysophosphatidic acid 20:4-induced neointima formation (rat carotid arteries; FIG. 6A): modest inhibition

lysophosphatidic acid
effect of added albumin on compound-induced activation of the PPRE-Acox-Rluc reporter gene (PPARγ; albumin 0.04-4% wt/vol, concentration-dependent (FIG. 7G)): inhibited
concentrations sufficient to cause significant activation of the reporter (PPARγ; dose-response (FIGS. 6E and F)): high nanomolar concentrations
effect of added rat serum on compound-induced activation of the PPRE-Acox-Rluc reporter gene (PPARγ; rat serum 1-20% vol/vol, concentration-dependent (FIG. 7H)): inhibited
